Some test systems named below: A498 renal; HOP-92 NSCLC; NCI-H522 lung; SF-539 CNS; SK-MEL-2 melanoma; SK-MEL-5 melanoma; SW-620 colon; TK-10 renal; UACC-257 melanoma; CCRF-CEM leukemia.
Assay in all cases: NCI-60 cell line screen, 48 h

The structures appear in SMILES notation.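 Protocol summary: plate cells (96-well), add compound at 5 concentrations, incubate 48 h, interpolate endpoints linearly. GI50 is the concentration that inhibits growth by half. TGI marks complete inhibition of growth.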 Bounds are passed on as bounds.

For `c1ccc(C2=NNC3c4ccccc4-c4ccccc4N3C2)cc1` (configuration not stated), the TGI with A498 renal was 98.5 µM; with HOP-92 NSCLC, > 100 µM; in the assay on NCI-H522 lung it was 80.3 µM; in the assay on SF-539 CNS, 50.5 µM; in the assay on SK-MEL-2 melanoma, 45.8 µM; with SK-MEL-5 melanoma it was 29.4 µM. In addition, the TGI with SW-620 colon is > 100 µM; in the assay with TK-10 renal it was 91.7 µM; in the assay with UACC-257 melanoma, 61.6 µM.
For `O=C(Nc1ccc(Cl)cc1)c1cc(-c2ccc(F)cc2)c2sc(=O)[nH]c2n1`, the GI50 in the assay on A498 renal is 0.465 µM; in the assay with CCRF-CEM leukemia, 0.657 µM; with HOP-92 NSCLC it was 0.204 µM; with NCI-H522 lung, 0.478 µM; with SF-539 CNS, 2.07 µM; with SK-MEL-2 melanoma it was 1.59 µM. Also, the GI50 with SK-MEL-5 melanoma was 0.493 µM; with SW-620 colon, 3.01 µM; in the assay on TK-10 renal, 1.88 µM; in the assay on UACC-257 melanoma, 1.11 µM. For the same molecule, the TGI with A498 renal came out at 3.35 µM; in the assay on CCRF-CEM leukemia it was 9.9 µM; in the assay on HOP-92 NSCLC, 0.94 µM; in the assay on NCI-H522 lung it was 5.42 µM; in the assay with SF-539 CNS it was 5.71 µM; in the assay with SK-MEL-2 melanoma it was 3.93 µM. Further, the TGI in the assay on SK-MEL-5 melanoma was determined as 2.13 µM; in the assay on SW-620 colon, 16.2 µM; in the assay on TK-10 renal, 4.94 µM; in the assay on UACC-257 melanoma it was 5.07 µM.
In the case of `CC(C)(C)OC(=O)Cc1ccc2c(ccn2Cc2ccccc2)c1`, the TGI in the assay on A498 renal, in the assay on CCRF-CEM leukemia, in the assay with HOP-92 NSCLC, in the assay with NCI-H522 lung, with SF-539 CNS and in the assay with SK-MEL-2 melanoma was > 100 µM each time. Besides, the TGI with SK-MEL-5 melanoma, in the assay with SW-620 colon, in the assay with TK-10 renal and in the assay on UACC-257 melanoma was > 100 µM throughout.
Take `CCN(CC)c1sc(N(CC)CC)c2c1SSSSS2`: the GI50 in the assay with A498 renal is 2.03 µM; in the assay on CCRF-CEM leukemia, 0.359 µM; in the assay on HOP-92 NSCLC, 2.87 µM; with NCI-H522 lung, 0.416 µM; in the assay with SF-539 CNS, 0.995 µM; in the assay with SK-MEL-2 melanoma it was 3.02 µM. For the same molecule, the GI50 was 0.851 µM with SK-MEL-5 melanoma, 0.132 µM in the assay on SW-620 colon, 0.765 µM in the assay on TK-10 renal and 1.79 µM in the assay with UACC-257 melanoma. Moreover, the TGI with A498 renal was found to be 3.54 µM; in the assay with CCRF-CEM leukemia, 1.24 µM; in the assay on HOP-92 NSCLC it was 5.92 µM; in the assay on SF-539 CNS, 2.63 µM; in the assay on SK-MEL-2 melanoma, 14.6 µM; in the assay on SK-MEL-5 melanoma, 1.95 µM. The TGI in the assay on SW-620 colon is 1.14 µM; with TK-10 renal, 1.88 µM; with UACC-257 melanoma it was 4.08 µM.
Take `Cc1cc(SCC(=O)c2ccccc2)nc2ccccc12`: the TGI with A498 renal, with HOP-92 NSCLC, in the assay with NCI-H522 lung, with SF-539 CNS, in the assay on SK-MEL-2 melanoma and in the assay on SK-MEL-5 melanoma was > 100 µM in each case. Moreover, the TGI with SW-620 colon, with TK-10 renal and in the assay on UACC-257 melanoma was > 100 µM in each case.
In the case of `CC(C)=CCC/C(=C/CC/C(C)=C/CCc1ccoc1)C(=O)O`, the TGI in the assay on A498 renal, in the assay on CCRF-CEM leukemia, with HOP-92 NSCLC, with NCI-H522 lung, with SF-539 CNS and in the assay on SK-MEL-2 melanoma was > 100 µM in each case. The TGI in the assay on SK-MEL-5 melanoma, with SW-620 colon and with UACC-257 melanoma was > 100 µM in each case.
Consider `COc1cc(NC(=O)c2cc(O)c(CC=C(C)C)c(O)c2)cc2c1O[C@]1(C)CC[C@@H](O)C(C)(C)[C@H]1C2`, for which the GI50 in the assay on A498 renal is 1.21 µM; in the assay with CCRF-CEM leukemia it was 2.21 µM; with NCI-H522 lung, 3.42 µM; in the assay on SF-539 CNS, 0.659 µM; with SK-MEL-2 melanoma, 1.33 µM; with SK-MEL-5 melanoma, 1.51 µM. The GI50 in the assay with SW-620 colon was 3.09 µM; in the assay on TK-10 renal, 9.59 µM; with UACC-257 melanoma, 3.37 µM. In addition, the TGI in the assay on A498 renal is 7.94 µM; in the assay on CCRF-CEM leukemia, > 100 µM; in the assay on NCI-H522 lung, 12.3 µM; in the assay with SF-539 CNS, 4.02 µM; with SK-MEL-2 melanoma it was 15.1 µM; with SK-MEL-5 melanoma it was 3.61 µM. Also, the TGI in the assay with SW-620 colon was determined as 13.8 µM; with TK-10 renal, 55.6 µM; with UACC-257 melanoma, 15.7 µM.
For `O=C1NC(=O)c2ccc([N+](=O)[O-])c3cccc1c23`, the TGI in the assay on A498 renal was determined as 29.1 µM; with HOP-92 NSCLC, 37.2 µM; with NCI-H522 lung it was 6.11 µM; in the assay with SF-539 CNS, 31.8 µM; in the assay with SK-MEL-2 melanoma it was 84.1 µM; with SK-MEL-5 melanoma, 34.6 µM. The TGI in the assay on SW-620 colon was 25.7 µM; in the assay on TK-10 renal, 45.8 µM; in the assay on UACC-257 melanoma, 33.1 µM.
Consider `O=C(CCl)Nc1ccc(Cl)cc1`, for which the GI50 was 10.4 µM in the assay with A498 renal; 6.67 µM in the assay with HOP-92 NSCLC; 1.48 µM in the assay on NCI-H522 lung; 3.78 µM in the assay on SF-539 CNS; 2.51 µM in the assay with SK-MEL-2 melanoma; 1.71 µM with SK-MEL-5 melanoma. Further, the GI50 with SW-620 colon is 3.45 µM; in the assay with TK-10 renal it was 2.3 µM; in the assay with UACC-257 melanoma it was 10.4 µM. For the same molecule, the TGI was 22.4 µM with A498 renal; 20.7 µM with HOP-92 NSCLC; 3.01 µM in the assay with NCI-H522 lung; 12.6 µM with SF-539 CNS; 6.16 µM in the assay on SK-MEL-2 melanoma; 3.16 µM with SK-MEL-5 melanoma. The results for the TGI in the assay with SW-620 colon, in the assay with TK-10 renal and in the assay with UACC-257 melanoma were 11.2 µM, 5.75 µM and 27.1 µM, respectively.
On to `Cc1ccc(N(C(=O)CC(=O)NN)C(=O)c2ccccc2Cl)cc1`, for which the TGI in the assay with A498 renal, with CCRF-CEM leukemia, in the assay on HOP-92 NSCLC, with NCI-H522 lung, with SF-539 CNS and in the assay on SW-620 colon was > 100 µM throughout. Also, the TGI with UACC-257 melanoma is > 100 µM.
Turning to `Cc1cccc(NC(=O)C(=O)Cc2nc3ccccc3[nH]c2=O)c1C`, the TGI in the assay on A498 renal, with CCRF-CEM leukemia, in the assay with HOP-92 NSCLC, with NCI-H522 lung, with SF-539 CNS and in the assay with SK-MEL-5 melanoma was > 100 µM in each case. Moreover, the TGI in the assay on SW-620 colon, in the assay with TK-10 renal and in the assay with UACC-257 melanoma was > 100 µM each time.

The values above are taken from PubChem BioAssay (NCI).
